Assay results: article PMC11990924, “Inhibition of Tyrosinase and Melanogenesis by Carboxylic Acids: Mechanistic Insights and Safety Evaluation” (Molecules, 2025)

System: B16-F10 cells
Assay: Proteomic analysis of B16-F10 cells (DIA mass spectrometry)
Assay type: cell-based, mouse
Experimental: B16-F10 cells were treated with various concentrations of carboxylic acids following the same culture protocol used for melanin inhibition assays. After treatment, the cells were collected and submitted to Shanghai Zhongke Xinming Biotechnology Co., Ltd. (Shanghai, China) for proteomics analysis. The collected cells were lysed with an appropriate volume of SDT lysis buffer (4% SDS, 100 mM Tris-HCl, pH 7.6) to extract proteins. DTT was added to reduce disulfide bonds, followed by incubation at room temperature for 1 h. Subsequently, iodoacetamide was added, and the mixture was reacted in the dark at room temperature for 30 min. The proteins were then digested with trypsin overnight. The resulting peptide fragments were desalted using a C18 cartridge. After freeze-drying, the peptides were resuspended in 40 μL of 0.1% formic acid solution, and the peptide concentration was determined by measuring the absorbance at 280 nm. An appropriate amount of internal reference for targeted proteomics (iRT) standard peptides was added to each sample for data-independent acquisition (DIA) mass spectrometry analysis. Chromatographic separation was performed using a nanoflow Evosep One system. The separated samples were analyzed by DIA mass spectrometry using a timsTOF Pro mass spectrometer (Bruker Daltonics, Bremen, Germany). Detection was conducted in positive-ion mode, with MS and MS/MS scanning ranges set from 100 to 1700 m/z. MS2 data acquisition was performed in DIA mode, with four TIMS scan windows, each accumulating for 100 ms. In PASEF mode, the collision energy varied linearly with ion mobility (1/K0), ranging from 20 to 59 eV for ions with 1/K0 values between 0.85 and 1.30 Vs/cm^2. The DIA data were processed using Spectronaut 19 software with the following parameter settings: retention time prediction type set to dynamic iRT, interference correction on MS2 level enabled, cross-run normalization enabled, maximum missed cleavage sites set to 2, fixed modification set to Carbamidomethyl (C), and variable modifications set to Oxidation (M) and Acetyl (Protein N-term). All results were filtered with a Q-value cutoff of 0.01, corresponding to a false discovery rate (FDR) of less than 1%. The target protein set was annotated using Blast2GO (version BLASTP 2.8.0+). The process included four steps: sequence alignment (Blast), GO mapping, GO annotation, and additional annotation augmentation using InterProScan. Using the KOBAS 3.0 software, KEGG pathway annotation was performed on the target protein set. Fisher’s exact test was employed to compare the distribution of GO categories in the target protein set and the overall protein set, thereby conducting enrichment analysis of the GO annotations in the target protein set. The proteomics dataset generated in this study has been made publicly available through the PRIDE ProteomeXchange Consortium with the dataset identifier PXD061919.

## O=C(O)C(O)Cc1ccccc1 (stereo not shown) [3-phenyllactic acid]
6 mM vs control, Table S1
  ATP8 protein fold change: 0.4618
  Aanat protein fold change: 2.208
  Acta1 protein fold change: 2.921
  Adgrg1 protein fold change: 0.4728
  Agtrap protein fold change: 0.4687
  Antxr2 protein fold change: 0.4747
  Aplp2 protein fold change: 0.2246
  Apob protein fold change: 0.4962
  Apoh protein fold change: 0.4857
  App protein fold change: 0.3729
  Arl6ip1 protein fold change: 0.4901
  Bace2 protein fold change: 0.4069
  Bcl9 protein fold change: 2.336
  Bltp1 protein fold change: 2.099
  Bst2 protein fold change: 0.3949
  CUB domain-containing protein (Q3TD85) fold change: 0.4924
  Cav2 protein fold change: 0.4909
  Cdc42se1 protein fold change: 0.3683
  Cisd2 protein fold change: 0.4369
  Cks2 protein fold change: 0.4644
  Ctns protein fold change: 0.3087
  Cxne protein fold change: 0.3753
  Cyp51a1 protein fold change: 0.3449
  Ddit3 protein fold change: 2.105
  Dgcr2 protein fold change: 0.4147
  Dnajc19 protein fold change: 0.3587
  E2f5 protein fold change: 2.473
  Eng protein fold change: 0.3635
  Entpd7 protein fold change: 0.3998
  Epb41l4b protein fold change: 2.181
  Fam174b protein fold change: 0.4339
  Fau protein fold change: 4.21
  Fosl2 protein fold change: 5.488
  Fv4 protein fold change: 0.4177
  Ginm1 protein fold change: 0.3741
  Glmp protein fold change: 0.4495
  H1-0 protein fold change: 2.057
  H3c14 protein fold change: 3.134
  Hbbt1 protein fold change: 0.388
  Hmgcs1 protein fold change: 0.3916
  Hspa13 protein fold change: 0.4084
  Ifi205 protein fold change: 2.571
  Ifitm2 protein fold change: 0.4697
  Il10rb protein fold change: 0.3763
  Itih3 protein fold change: 0.3529
  Itm2b protein fold change: 0.2428
  Itm2c protein fold change: 0.3416
  Kbtbd2 protein fold change: 0.4177
  Kcnj13 protein fold change: 0.3629
  Laptm4a protein fold change: 0.2076
  Laptm4b protein fold change: 0.3669
  Ldha protein fold change: 2.104
  Ldlr protein fold change: 0.4018
  Mast4 protein fold change: 2.12
  Met protein fold change: 0.4986
  Mfap3 protein fold change: 0.4088
  Mlana protein fold change: 0.2524
  Mtfr2 protein fold change: 0.4374
  Myl6 protein fold change: 0.4951
  Ndfip1 protein fold change: 0.3294
  Nfatc2 protein fold change: 0.2366
  Nrp1 protein fold change: 0.4865
  Nrp2 protein fold change: 0.3408
  Pacsin2 protein fold change: 0.3403
  Phyhd1 protein fold change: 2.286
  Pmel protein fold change: 0.4916
  Psap protein fold change: 0.4703
  Ptprs protein fold change: 0.4896
  Rad51ap1 protein fold change: 0.4291
  Rnf220 protein fold change: 0.4969
  Sdc1 protein fold change: 0.244
  Sdcbp protein fold change: 0.4883
  Serac1 protein fold change: 2.052
  Sfpq protein fold change: 2.482
  Sgce protein fold change: 0.4392
  Slc2a6 protein fold change: 0.4306
  Slc4a2 protein fold change: 0.48
  Slc7a1 protein fold change: 0.4712
  Slc24a5 protein fold change: 0.4286
  Slc35b2 protein fold change: 0.3476
  Slc38a2 protein fold change: 0.3733
  Slc45a2 protein fold change: 0.451
  Sparcl1 protein fold change: 0.4926
  Syt4 protein fold change: 0.3106
  Tagln2 protein fold change: 0.2815
  Tgoln1 protein fold change: 0.479
  Tial1 protein fold change: 2.492
  Tmed1 protein fold change: 0.4801
  Tmem14c protein fold change: 4.332
  Tmem59 protein fold change: 0.233
  Tmem176a protein fold change: 0.2277
  Tmem176b protein fold change: 0.171
  Trib3 protein fold change: 2.531
  Try10 protein fold change: 0.2906
  Tspan3 protein fold change: 0.3162
  Tspan10 protein fold change: 0.3282
  Tubb4a protein fold change: 3.655
  Tyrp1 protein fold change: 0.3578
  U2af1l4 protein fold change: 2.0208
  Ube2j1 protein fold change: 0.3514
  Ubl3 protein fold change: 0.2819
  Zbtb3 protein fold change: 2.269
  env protein fold change: 0.4886
  il6st protein fold change: 0.4117
  p53 (Fragment) (A6YM30) protein fold change: 3.222
Mouse B16-F10 cells, proteomic analysis
  regulation of MMP9 or PPARG: did not significantly downregulate
